{
  "source": "patent US6646001B2",
  "about": "“Use of non-steroidal anti-inflammatory agents in combination with prostaglandin FP receptor agonists to treat glaucoma and ocular hypertension” (Alcon Manufacturing, Ltd., priority 1997, dated 2003)",
  "test": "nepafenac concentration in ocular tissues of rabbits following a single topical dose",
  "assay_type": "in vivo",
  "settings": "topical ocular administration of 0.3% nepafenac, simple formulation without penetration enhancers",
  "method": "The estimated concentration within the anterior chamber following topical ocular administration of 0.3% nepafenac to rabbits is 24 μM (see FIGS. 1 and 2). This concentration, achieved using a simple formulation without penetration enhancers, is in excess of the parent compounds' COX I and COX II IC50s. This enhanced bioavailability provides a significant advantage and is unexpected over other non-steroidal anti-inflammatory drugs as well as amide derivatives of non-steroidal anti-inflammatory drugs. The compounds disclosed in the '034 patent, the contents of which are incorporated herein by reference, are ester and amide derivatives of 3-benzoylphenylacetic acid.",
  "data": [
    {"compound": "NC(=O)Cc1cccc(C(=O)c2ccccc2)c1N", "note": "[nepafenac, 2-Amino-3-benzoyl-phenylacetamide]", "values": [
      {"measurement": "estimated concentration within the anterior chamber", "value": 24, "unit": "µM"}
    ]}
  ]
}
